Experimental data as given in publication PMC5951806, “Rapid labelling and covalent inhibition of intracellular native proteins using ligand-directed N-acyl-N-alkyl sulfonamide” (Nature Communications, 2018).

What was measured:
[1] = target: Isoform 2 of Elongation factor 1-gamma (EEF1G) (Homo sapiens, UniProt P26641); experiment: TMT LC-MSMS of 11-labelled proteins; format: cell-based; conditions: SKBR3 cells; for Abundance Ratio: (11) / (DMSO): 11 0.5 µM 3 h vs DMSO; for Abundance Ratio: (11) / (11 with PU-H71): 11 0.5 µM 3 h vs with PU-H71 10 µM
Isoform 2 of Elongation factor 1-gamma (EEF1G), sequence (P26641 5-437 limits assumed): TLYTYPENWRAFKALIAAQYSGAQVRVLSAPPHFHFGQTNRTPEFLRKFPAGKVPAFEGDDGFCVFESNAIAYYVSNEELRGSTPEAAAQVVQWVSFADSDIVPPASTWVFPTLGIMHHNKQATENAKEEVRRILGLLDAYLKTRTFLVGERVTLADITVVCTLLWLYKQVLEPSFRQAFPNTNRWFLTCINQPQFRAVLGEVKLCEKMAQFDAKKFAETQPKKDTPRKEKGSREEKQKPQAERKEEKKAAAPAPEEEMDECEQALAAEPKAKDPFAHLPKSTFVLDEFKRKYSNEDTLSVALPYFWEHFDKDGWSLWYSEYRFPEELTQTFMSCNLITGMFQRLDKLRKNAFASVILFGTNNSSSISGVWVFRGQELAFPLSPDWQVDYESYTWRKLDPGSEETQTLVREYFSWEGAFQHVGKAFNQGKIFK
Excerpt: (§1) The labelled proteins were enriched by immunoprecipitation with an anti-fluorescein antibody and tryptically digested in gel. Digested peptides were modified with Light- (L-), Medium- (M-), or Heavy- (H-) TMT reagent for samples treated with 11, 11 with PU-H71 (as competitive condition), or DMSO (vehicle), respectively, and mixed in a 1:1:1 ratio for LC-MSMS analysis. We performed three experimental replicates, in which proteins detected and quantified at least twice were selected as identified proteins. According to the related approach of Cravatt et al[44], the proteins having L/H (11/DMSO) ratios >5 were defined as 11-labelled proteins. […] On the basis of these criteria, we identified 6 proteins that react with 11, including three ligand-specific targets (Hsp90α (HSP90AA1), Hsp90β (HSP90AB1), and Grp94 (HSP90B1)) and three off-targets (Trifunctional enzyme subunit α (HADHA), Tubulin-α (TUBA1B), and ADP/ATP translocase 3 (SLC25A6)) (Fig. 5d, e and Supplementary Data 1). […] Grp94, a HSP90 isomer, was previously reported to be a PU-H71 specific target. TRAP-1, another Hsp90 isomer that can bind PU-H71, on the other hand, was not identified as 11-target by our criteria.
(§2) SKBR3 human breast cancer cells (2.0 × 10^6 cells) were seeded on a 10 cm dish and cultured for 3 days in McCoy’s 5A in a 5% CO2 humidified chamber at 37 °C. […] As competitive experiments, the labelling was conducted in the presence of PU-H71 (10 µM). After labelling, the cells were washed twice with PBS, and lysed with RIPA buffer. […] The supernatant was mixed with chilled acetone and incubated overnight at −80 °C. The protein precipitates were solubilized by sonication in 1 mL of RIPA buffer containing 1% SDS, and then 10-fold diluted with RIPA buffer to reduce SDS concentration to c.a. 0.1%. The protein solution (containing 1 mg of protein) was mixed with Protein G Sepharose 4 Fast Flow (GE Healthcare) and rotated at 4 °C for 1 h. After removal of the beads, the remaining supernatant was mixed with anti-fluorescein antibody (Abcam, ab19491, 7:10000) and rotated at 4 °C for 1 h, followed by addition of fresh Protein G Sepharose 4 Fast Flow and further incubation at 4 °C for 4 h. The beads were washed five times with RIPA buffer and once with PBS. Proteins were eluted from the beads by addition of 2 × sample buffer containing 100 mM DTT and boiling at 95 °C for 5 min. The samples were subjected to a 7.5% SDS–PAGE gel (Mini-PROTEAN TGX Gels, BioRad), and electrophoresed as the migration distance of dye front is about 10 mm. Each lane was excised (height, 10 mm), and treated with a 47.5% methanol / 47.5% pure water / 5% acetic acid for 20 min, a 50% methanol / 50% pure water for 10 min, and in pure water for 10 min. The gel pieces were dehydrated with 100% acetonitrile, and then swelled with 200 μL of 100 mM TEAB (triethylamine bicarbonate) buffer containing 10 mM DTT and heated at 56 °C for 30 min. The solutions were replaced with 200 µL of 100 mM TEAB buffer containing 55 mM iodoacetamide and incubated for 45 min in the dark. The gel pieces were washed with 100 mM TEAB buffer and dehydrated in acetonitrile. This step was repeated once. The gels were reswelled in 100 mM TEAB buffer containing 10 ng/μL Sequencing Grade Trypsin (Promega) and incubated overnight at 37 °C. To the gels, 50 μL of an extraction solution (50% acetonitrile, 0.1% TFA) was added. After 10 min incubation, the supernatants were collected to new tubes, and this process was repeated twice. Extracted peptides were dried in vacuo and reconstituted with 25 μL of 100 mM TEAB buffer.

[2] = target: T1, Isoform 2 of Fructose-bisphosphate aldolase A (ALDOA) (Homo sapiens, UniProt P04075); experiment: TMT LC-MSMS of 11-labelled proteins; format: cell-based
T1 sequence (P04075 2-364 limits assumed): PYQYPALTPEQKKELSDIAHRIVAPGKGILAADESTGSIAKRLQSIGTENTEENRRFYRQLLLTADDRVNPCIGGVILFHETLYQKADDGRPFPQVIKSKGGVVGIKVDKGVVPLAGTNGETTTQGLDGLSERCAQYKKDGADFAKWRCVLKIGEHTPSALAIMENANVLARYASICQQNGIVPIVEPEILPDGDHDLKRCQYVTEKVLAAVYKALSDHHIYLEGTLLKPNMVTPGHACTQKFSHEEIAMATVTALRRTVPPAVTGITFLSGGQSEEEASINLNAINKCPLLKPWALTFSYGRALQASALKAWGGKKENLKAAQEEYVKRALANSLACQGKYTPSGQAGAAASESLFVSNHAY
Excerpt: as §1, §2

SMILES: CC(=O)Oc1ccc2c(c1)Oc1cc(OC(C)=O)ccc1C21OC(=O)c2cc(C(=O)NCCOCCOCCNC(=O)CCCC(=O)N(CC#N)S(=O)(=O)c3ccc(C(=O)NCCCn4c(Sc5cc6c(cc5I)OCO6)nc5c(N)ncnc54)cc3)ccc21 [compound 11]
- Abundance Ratio: (11) / (DMSO) ([1]; sheet Exp1): 4.152
- Abundance Ratio: (11) / (11 with PU-H71) ([1]; sheet Exp1): 0.818
- Abundance Ratio: (11) / (DMSO) ([1]; sheet Merged): 1.23
- Abundance Ratio: (11) / (11 with PU-H71) ([1]; sheet Merged): 0.746
- Abundance Ratio: (11) / (11 with PU-H71) ([2]; Exp3, ALDOA): 0.706
- Abundance Ratio: (11) / (DMSO) ([2]; Exp3, ALDOA): 3.817
- Abundances (Grouped): 11 ([2]; Exp3, ALDOA): 494.7
- Abundances (Grouped): 11 with PU-H71 ([2]; Exp3, ALDOA): 700.9
- Abundance Ratio: (11) / (DMSO) ([2]; sheet Exp1, SKBR3 cells, 11 0.5 µM 3 h vs DMSO): 4.85
- Abundance Ratio: (11) / (11 with PU-H71) ([2]; sheet Exp1, SKBR3 cells, 11 0.5 µM 3 h vs with PU-H71 10 µM): 0.675
- Abundance Ratio: (11) / (11 with PU-H71) ([2]; sheet Exp2, ALDOA): 0.724
- Abundance Ratio: (11) / (DMSO) ([2]; sheet Exp2, ALDOA): 4.699
- Abundances (Grouped): 11 ([2]; sheet Exp2, ALDOA): 363.2
- Abundances (Grouped): 11 with PU-H71 ([2]; sheet Exp2, ALDOA): 502
- Abundance Ratio: (11) / (DMSO) ([2]; sheet Merged, SKBR3 cells, 11 0.5 µM 3 h vs DMSO): 4.85
- Abundance Ratio: (11) / (11 with PU-H71) ([2]; sheet Merged, SKBR3 cells, 11 0.5 µM 3 h vs with PU-H71 10 µM): 0.675
